Laboratory results reported in EP1144412B1, “IMMUNOSUPPRESSIVE EFFECTS OF PTERIDINE DERIVATIVES” (4 AZA Bioscience nv, priority 1998, dated 2000).
Like-named read-outs stand apart in the source and are kept apart here.

Legend:
[1] = tested on: Peripheral blood mononuclear cells (PBMC); assay: Mixed lymphocyte reaction (MLR), [3H]-thymidine incorporation; assay type: cell-based; conditions: Homo sapiens
Source text: (§1) Various models may be used for testing an immunosuppressive effect. In vivo, for example, different transplantation models are available. They are strongly influenced by different immunogenicities, depending on the donor and recipient species used and depending on the nature of the transplanted organ. The survival time of transplanted organs can thus be used to measure the suppression of the immune response. In vitro, there exist also various models. The most used are lymphocyte activation tests. Usually activation is measured via lymphocyte proliferation. Inhibition of proliferation thus always means immunosuppression under the experimental conditions applied. There exist different stimuli for lymphocyte activation: • coculture of lymphocytes of […] (MLR = mixed lymphocyte reaction): lymphocytes expressing different minor and major antigens of the HLA-DR type (= alloantigens) activate each other non-specifically. • CD3 assay: here there is an activation of the T-lymphocytes via an exogenously added antibody (OKT3). This antibody reacts against the CD3 molecule located on the lymphocyte membrane. This molecule has a costimulatory function. […] This molecule is also located on the lymphocyte membrane, and delivers strong costimulatory signals.
Peripheral blood mononuclear cells (PBMC) were isolated from heparinized peripheral blood by density gradient centrifugation over Lymphoprep (Nycomed, Maorstua, Norway). Allogeneic PBMC or EBV-transformed human B cells [RPMI1788 (ATCC name CCL156)] which strongly express B7-1 and B7-2 were used as stimulator cells after irradiation with 30 Gy. MLR was performed in triplicate wells. After 5 days incubation at 37EC, 1 µCi [^3H]-thymidine was added to each cup. After a further 16 hours incubation, cells were harvested and counted in a β-counter.
The percent suppression of proliferation by drugs was counted using the formula Percent inhibition =((cpm + drugs) - cpm Cult. Med)/((cpm - drugs) - cpm Cult. Med.)x 100 [formula]

Highly purified T cells [2] = assay: T cell proliferation induced by anti-CD3 mAb + PMA (BrdU incorporation); assay type: cell-based, Human; conditions: Homo sapiens, T-cell
Source text: as §1
(§2) T cells were purified by removing non-T cells. Briefly,monocytes were removed by cold agglutination. The resulting lymphoid cells were further purified by a cell enrichment immunocolumn [Cellect Human T (Biotex, Edmonton, Alberta, Canada)] by a process of negative selection.
(§3) Measurements of T cell proliferations induced by anti-CD3 mAb + PMA or anti-CD28 mAb + PMA
(§4) Highly purified T cells (10^6/ml) were stimulated by immobilized anti-CD3 àr anti-CD28 mAb in the presence of PMA. Anti-CD3 mAb (CLB-CD3; CLB, Amsterdam, The Netherlands) were fixed on the 96-microwell plates by incubating the wells with 50 µl of mAb solution (1/800 dilution in culture medium). Anti-CD28 mAb (CLB-CD28; CLB, Amsterdam, The Netherlands) 50 µl (1/650 dilution in culture medium) was added directly to the wells. Further, 20 µl PMA (Sigma, St. Louis, MO, USA) solution (final concentration: 0.5 ng/ml) was added. Subsequently, 20 µl of immunosuppressants were added by serial dilution in triplicate wells. Finally 100 µl of the T cell suspension (10^6/ml) was added. After 48-hour incubation at 37EC in 5% CO2 20 Φl BrdU (100 ΦM solution) (Cell Proliferation Elisa, Boehringer-Mannheim Belgium) was added to each well. After a further overnight incubation the T cell proliferation was measured using a colorimetric immunoassay for qualification of cell proliferation based on measurements of the incorporation of BrdU during DNAsynthesis. The optical density (OD) was measured by a Behring EL311 plate reader at 450 nm (reference wavelength: 690 nm). The percent suppression of proliferation by drugs was counted using the formula: Per cent inhibition =((OD + drugs) - (OD Cult. Med.))/((OD - drugs) - (OD Cult. Med.))x 100 [formula]

Highly purified T cells [3] = assay: T cell proliferation induced by anti-CD28 mAb + PMA (BrdU incorporation); assay type: cell-based, Human; conditions: Homo sapiens, T-cell
Source text: as §1, §2, §3, §4

[4] = Table II, read-out: IC50 in µM of pteridine derivative MLR
[5] = untitled structure table, no unit printed there, same values in Table II as IC50 in µM, read-out: MLR
[6] = Table II, read-out: IC50 in µM of pteridine derivative ACD3
[7] = untitled structure table, no unit printed there, same values in Table II as IC50 in µM, read-out: aCD3
[8] = Table II, read-out: IC50 in µM of pteridine derivative aCD28
[9] = untitled structure table, no unit printed there, same values in Table II as IC50 in µM, read-out: aCD28
[10] = Table IV, known pteridine derivatives, IC50 subranges, read-out: MLR
[11] = Table IV, known pteridine derivatives, IC50 subranges, read-out: aCD3
[12] = Table IV, known pteridine derivatives, IC50 subranges, read-out: aCD28
[13] = untitled structure table, IC50 subranges, read-out: MLR
[14] = untitled structure table, IC50 subranges, read-out: aCD3
[15] = untitled structure table, IC50 subranges, read-out: aCD28

Compound | IC50 [1, 4] [µM] | IC50 [1, 5] [µM] | IC50 (Highly purified T cells [2]; [6]) [µM] | IC50 (Highly purified T cells [2]; [7]) [µM] | IC50 (Highly purified T cells [3]; [8]) [µM] | IC50 (Highly purified T cells [3]; [9]) [µM] | IC50 [1, 10] [µM] | IC50 (Highly purified T cells [2]; [11]) [µM] | IC50 (Highly purified T cells [3]; [12]) [µM] | IC50 [1, 13] [µM] | IC50 (Highly purified T cells [2]; [14]) [µM] | IC50 (Highly purified T cells [3]; [15]) [µM]
Nc1nc(NO)c2nc(-c3ccccc3)cnc2n1 [Compound 13, 2-amino-4-hydroxylamino-6-phenylpteridine] | 140 | 140 | > 200 | > 200 | > 200 | > 200 |  |  |  |  |  | 
COc1ccc(-c2cnc3nc(N)nc(N4CCNCC4)c3n2)cc1 [Compound 48, 2-amino-4-piperazino-6-(4-methoxyphenyl)pteridine] | 10.5 | 10.5 | 14 | 14 | 4.5 | 4.5 |  |  |  |  |  | 
CC(C)C(=O)NCc1cnc2nc(N)nc(N)c2n1 [CH2 NH CO CH (CH3)2, reference compound] |  |  |  |  |  |  | > 151 | > 151 | > 151 |  |  | 
Nc1nc(N2CCOCC2)c2nc(-c3ccc4c(c3)OCO4)cnc2n1 [Compound 56, 2-amino-4-morpholino-6-(3,4-formylidene-3,4-dihydroxyphenyl)pteridine] |  |  |  |  |  |  |  |  |  | 1 to 15 | 16 to 150 | 16 to 150
COc1cc(-c2cnc3nc(N)nc(N(Cc4ccccc4)Cc4ccccc4)c3n2)cc(OC)c1OC [Compound 50, 2-amino-4-dibenzylamino-6-(3,4,5-trimethoxyphenyl)pteridine] |  |  |  |  |  |  |  |  |  | 1 to 15 | 1 to 15 | 1 to 15
CN(C)c1nc(N)nc2ncc(-c3ccc4c(c3)OCO4)nc12 [Compound 57, 2-amino-4-dimethylamino-6-(3,4-formylidene-3,4-dihydroxyphenyl)pteridine] |  |  |  |  |  |  |  |  |  | > 151 | 16 to 150 | 16 to 150
Nc1nc(N2CCNCC2)c2nc(-c3ccc(Cl)cc3)cnc2n1 [Compound 47, 2-amino-4-piperazino-6-(4-chlorophenyl)pteridine] | 2 | 2 | 20 | 20 | 15 | 15 |  |  |  |  |  | 
CNCc1cnc2nc(N)[nH]c(=O)c2n1 [CH2NHCH3, reference compound] |  |  |  |  |  |  | > 151 | > 151 | > 151 |  |  | 
COc1ccc(-c2cnc3nc(N)nc(N(Cc4ccccc4)Cc4ccccc4)c3n2)cc1OC [Compound 28, 2-amino-4-dibenzylamino-6-(3,4-dimethoxyphenyl) pteridine] | 3.5 | 3.5 | 4.3 | 4.3 | 3.2 | 3.2 |  |  |  |  |  | 
Nc1nc(N(Cc2ccccc2)Cc2ccccc2)c2nc(-c3ccc(Cl)cc3)cnc2n1 [Compound 26, 2-amino-dibenzylamino-6-(4-chlorophenyl) pteridine] | 100 | 100 | 75 | 75 | 20 | 20 |  |  |  |  |  | 
CCN(CC)c1nc(N)nc2ncc(-c3ccc(Cl)cc3)nc12 [Compound 22, 2-amino-4-diethylamino-6-(4-chlorophenyl) pteridine] | 17 | 17 | 50 | 50 | 20 | 20 |  |  |  |  |  | 
Nc1nc(N2CCOCC2)c2nc(-c3ccc(Cl)cc3)cnc2n1 [Compound 34, 2-amino-4-morpholino-6-(4-chlorophenyl)pteridine] | 12 | 12 | 20 | 20 | 20 | 20 |  |  |  |  |  | 
CCCNc1nc(N)nc2ncc(-c3ccccc3)nc12 [Compound 62, 2-amino-4-propylamino-6-phenylpteridine] |  |  |  |  |  |  |  |  |  | 1 to 15 | 16 to 150 | 16 to 150
